Counter-ions that a name gives are not always drawn.
Experiments:
[1] = molecular target: T1, catalytic domain of human PARP14 (residues 1611 to 1801) with NanoLuc tag (Homo sapiens, UniProt Q460N5); experiment: NanoLuc assay for the degradation of PARP14 (NanoLuc-tagged PARP14 overexpressed in HEK-293T cells, 2 hours); type: cell-based; details: Assay A (Example A): NanoLuc-tagged PARP14 degradation in HEK-293T cells, read-out: DC50
T1 construct: expressed in transfected cells; host or cells: HEK-293T cells (ATCC), pcDNA3.1(-) vector
T1 sequence (Q460N5 1611-1801): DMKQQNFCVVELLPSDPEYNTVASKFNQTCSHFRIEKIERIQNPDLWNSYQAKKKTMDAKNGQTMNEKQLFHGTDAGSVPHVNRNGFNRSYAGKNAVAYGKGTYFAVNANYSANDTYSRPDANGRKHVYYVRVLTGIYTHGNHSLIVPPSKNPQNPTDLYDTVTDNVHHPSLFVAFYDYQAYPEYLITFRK
Method: The insert also contained a NanoLuc tag on the N terminus of the PARP14 protein.
Degradation of PARP14 protein was assessed using measurement of the NanoLuc tag as proxy for the PARP14 protein. […] Plasmid DNA was diluted in empty vector DNA then added to 1.163 mL of phenol red free OptiMEM (Thermo Fisher). Plasmid DNA concentrations used in each assay described in Table 1. The plasmid DNA was mixed with 78.5 μL of Fugene HD (Promega) and allowed to incubate 5 minutes.
The transfection was incubated for 24 hrs at 37 degrees in an incubator supplemented with 5% CO2. The cells were then trypsinized and brought up in phenol red free OptiMEM media. […] 40 nL of a dose response curve diluted in DMSO of each test compound was added to the cell plate using a Mosquito (TTP Labtech) and the plate was incubated at 37° C. for 2 hours. Assay plate was brought to room temperature then 20 μL per well of NanoGlo (Promega) was added to the plate. Luminescence was measured on an Envision (Perkin Elmer).
The average DMSO was calculated from 32 wells containing 0.1% DMSO only in columns 12 and 24 of the assay plate. The % of DMSO values were calculated as described below: […]
The % of DMSO values were plotted as a function of compound concentration and the following 4-parameter fit was applied to derive the DC50 values:
where top, bottom, and Hill Coefficient are allowed to float. Y is the % of DMSO and X is the compound concentration
DC50 data for the Example compounds is provided below in Table 2 (“+” is <0.1 μM; “++” is ≥0.1 μM and <1 μM; and “+++” is ≥1 μM).

HiBiT tagged PARP14 = molecular target: T2, HiBiT tagged PARP14 (Homo sapiens, UniProt Q460N5); experiment: HiBiT assay for the degradation of PARP14 (HiBiT tagged PARP14 in LgBiT expressing Jurkat cells, 2 or 24 hours); type: cell-based; details: Assay B (Example B): HiBiT tagged PARP14 degradation in LgBiT expressing Jurkat cells, read-out: DC50
T2 construct: engineered to contain a HiBiT tag on both alleles of the PARP14 gene; endogenous in cells; host or cells: Jurkat cells stably transfected with LgBiT (Promega), PARP14 locus edited by CRISPR/Cas9
T2 sequence (Q460N5 whole entry): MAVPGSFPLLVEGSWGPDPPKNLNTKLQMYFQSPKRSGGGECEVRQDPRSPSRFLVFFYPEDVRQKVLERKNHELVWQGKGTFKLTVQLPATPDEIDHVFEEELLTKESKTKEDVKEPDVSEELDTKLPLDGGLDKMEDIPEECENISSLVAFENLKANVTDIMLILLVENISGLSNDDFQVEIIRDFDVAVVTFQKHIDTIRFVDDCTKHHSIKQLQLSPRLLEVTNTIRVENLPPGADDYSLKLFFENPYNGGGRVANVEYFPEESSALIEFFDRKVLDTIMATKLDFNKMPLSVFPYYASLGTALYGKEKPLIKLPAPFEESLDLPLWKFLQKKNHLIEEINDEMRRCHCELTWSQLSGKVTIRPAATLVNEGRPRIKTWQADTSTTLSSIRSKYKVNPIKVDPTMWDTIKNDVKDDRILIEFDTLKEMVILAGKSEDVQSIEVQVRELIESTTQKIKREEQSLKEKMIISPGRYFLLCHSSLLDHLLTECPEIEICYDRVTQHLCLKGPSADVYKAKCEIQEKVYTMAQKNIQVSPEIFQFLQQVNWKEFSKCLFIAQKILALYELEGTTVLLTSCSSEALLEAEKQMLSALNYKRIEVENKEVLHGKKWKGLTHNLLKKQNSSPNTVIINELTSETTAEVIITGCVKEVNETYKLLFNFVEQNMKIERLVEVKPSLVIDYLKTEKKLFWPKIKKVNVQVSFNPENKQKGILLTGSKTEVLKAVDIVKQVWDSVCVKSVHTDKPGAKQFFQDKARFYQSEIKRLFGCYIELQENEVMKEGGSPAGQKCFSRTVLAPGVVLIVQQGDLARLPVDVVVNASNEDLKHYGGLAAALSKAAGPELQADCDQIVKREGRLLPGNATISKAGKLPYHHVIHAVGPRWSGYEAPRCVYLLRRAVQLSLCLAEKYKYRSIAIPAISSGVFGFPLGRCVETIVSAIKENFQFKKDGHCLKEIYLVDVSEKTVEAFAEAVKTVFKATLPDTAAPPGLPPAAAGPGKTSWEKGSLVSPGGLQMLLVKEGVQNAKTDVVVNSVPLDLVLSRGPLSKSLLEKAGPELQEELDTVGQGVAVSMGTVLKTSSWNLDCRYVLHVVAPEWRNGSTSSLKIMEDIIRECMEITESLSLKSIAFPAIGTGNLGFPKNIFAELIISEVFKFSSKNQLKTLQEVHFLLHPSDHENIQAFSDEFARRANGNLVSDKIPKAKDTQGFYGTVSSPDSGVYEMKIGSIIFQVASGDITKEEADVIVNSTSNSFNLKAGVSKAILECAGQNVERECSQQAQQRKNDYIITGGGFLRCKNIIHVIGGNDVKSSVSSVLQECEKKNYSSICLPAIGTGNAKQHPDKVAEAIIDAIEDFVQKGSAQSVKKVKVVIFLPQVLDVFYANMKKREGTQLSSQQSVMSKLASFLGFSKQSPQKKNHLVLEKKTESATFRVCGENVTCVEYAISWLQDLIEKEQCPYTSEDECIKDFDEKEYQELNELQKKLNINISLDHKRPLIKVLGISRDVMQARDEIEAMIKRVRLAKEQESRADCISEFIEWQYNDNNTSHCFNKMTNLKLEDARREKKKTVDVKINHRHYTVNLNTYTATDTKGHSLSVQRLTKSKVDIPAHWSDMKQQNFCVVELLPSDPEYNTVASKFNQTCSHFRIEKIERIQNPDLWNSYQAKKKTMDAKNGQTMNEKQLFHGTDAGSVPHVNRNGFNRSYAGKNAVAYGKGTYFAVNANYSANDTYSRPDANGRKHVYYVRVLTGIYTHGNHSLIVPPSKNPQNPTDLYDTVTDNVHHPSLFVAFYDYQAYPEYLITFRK
In short: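 Jurkat cells stably expressing LgBiT with CRISPR knock-in of C-terminal HiBiT on both PARP14 alleles, 5,000 cells/well, treated with compound dose-response at 37 °C for 2 or 24 h. Live Cell Substrate luminescence normalised to 0.1% DMSO wells; DC50 from 4-parameter fit with floating top, bottom, Hill.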

| DC50 [1] | DC50 (HiBiT tagged PARP14) | Structure (SMILES) |
| --- | --- | --- |
|  | < 30 nM | O=C1CCN(c2cnc3cc(N4CCC(N5CC(N6CCC(COc7cc(F)c8c(=O)[nH]c(CSC9CCOCC9)nc8c7)CC6)C5)CC4)ccn23)C(=O)N1 [Example 167, 1-(7-(4-(3-(4-(((5-fluoro-4-oxo-2-(((tetrahydro-2H-pyran-4-yl)thio)methyl)-3,4-dihydroquinazolin-7-yl)oxy)methyl)piperidin-1-yl)azetidin-1-yl)piperidin-1-yl)imidazo[1,2-a]pyridin-3-yl)dihydropyrimidine-2,4(1H,3H)-dione] |
|  | < 30 nM | O=C1CCC(NC(=O)c2ccc(N3CCC(N4CC(N5CCC(COc6cc(F)c7c(=O)[nH]c(CSC8CCOCC8)nc7c6)CC5)C4)CC3)cc2F)C(=O)N1 (stereo not drawn) [Example 151, N-(2,6-dioxopiperidin-3-yl)-2-fluoro-4-(4-(3-(4-(((5-fluoro-4-oxo-2-(((tetrahydro-2H-pyran-4-yl)thio)methyl)-3,4-dihydroquinazolin-7-yl)oxy)methyl)piperidin-1-yl)azetidin-1-yl)piperidin-1-yl)benzamide] |
|  | < 30 nM | O=C1CCC(Nc2ccc(N3CCC(C(=O)N4CC(N5CCC(COc6cc(F)c7c(=O)[nH]c(COC8CCOCC8)nc7c6)CC5)C4)CC3)c(F)c2)C(=O)N1 (stereo not drawn) [Example 177, 3-((3-fluoro-4-(4-(3-(4-(((5-fluoro-4-oxo-2-(((tetrahydro-2H-pyran-4-yl)oxy)methyl)-3,4-dihydroquinazolin-7-yl)oxy)methyl)piperidin-1-yl)azetidine-1-carbonyl)piperidin-1-yl)phenyl)amino)piperidine-2,6-dione] |
|  | < 30 nM | O=C1CCN(c2cnc3cc(N4CCN(CCN5CCC(COc6cc(F)c7c(=O)[nH]c(CSC8CCOCC8)nc7c6)CC5)CC4)ccn23)C(=O)N1 [Example 209, 1-(7-(4-(2-(4-(((5-fluoro-4-oxo-2-(((tetrahydro-2H-pyran-4-yl)thio)methyl)-3,4-dihydroquinazolin-7-yl)oxy)methyl)piperidin-1-yl)ethyl)piperazin-1-yl)imidazo[1,2-a]pyridin-3-yl)dihydropyrimidine-2,4(1H,3H)-dione diformate] |
|  | < 30 nM | O=C1CCC(Nc2ccc(N3CCC(CN4CC(N5CCC(COc6cc(F)c7c(=O)[nH]c(CSC8CCOCC8)nc7c6)CC5)C4)CC3)c(F)c2)C(=O)N1 (stereo not drawn) [Example 217, 3-((3-fluoro-4-(4-((3-(4-(((5-fluoro-4-oxo-2-(((tetrahydro-2H-pyran-4-yl)thio)methyl)-3,4-dihydroquinazolin-7-yl)oxy)methyl)piperidin-1-yl)azetidin-1-yl)methyl)piperidin-1-yl)phenyl)amino)piperidine-2,6-dione formate] |
|  | < 30 nM | O=C1CCC(Nc2ccc3c(c2)CN(CCN2CCC(COc4cc(F)c5c(=O)[nH]c(CSC6CCOCC6)nc5c4)CC2)C3)C(=O)N1 (stereo not drawn) [Example 92, 3-((2-(2-(4-(((5-fluoro-4-oxo-2-(((tetrahydro-2H-pyran-4-yl)thio)methyl)-3,4-dihydroquinazolin-7-yl)oxy)methyl)piperidin-1-yl)ethyl)isoindolin-5-yl)amino)piperidine-2,6-dione] |
|  | < 30 nM | O=C1CCC(Nc2ccc(N3CCC(N4CC(N5CCC(COc6cc(F)c7c(=O)[nH]c(CSC8CCOCC8)nc7c6)CC5)C4)CC3)c(F)c2)C(=O)N1 (single isomer, unassigned) [Example 116a, 3-((3-fluoro-4-(4-(3-(4-(((5-fluoro-4-oxo-2-(((tetrahydro-2H-pyran-4-yl)thio)methyl)-3,4-dihydroquinazolin-7-yl)oxy)methyl)piperidin-1-yl)azetidin-1-yl)piperidin-1-yl)phenyl)amino)piperidine-2,6-dione] |

The remaining lines, values behind:

| Structure (SMILES) | DC50 [1] | DC50 (HiBiT tagged PARP14) |
| --- | --- | --- |
| Cn1c(=O)n(C2CCC(=O)NC2=O)c2ccc(C3CCN(CCN4CCC(COc5cc(F)c6c(=O)[nH]c(CSC7CCOCC7)nc6c5)CC4)CC3)cc21 (stereo not drawn) [Example 78, 3-(5-(1-(2-(4-(((5-fluoro-4-oxo-2-(((tetrahydro-2H-pyran-4-yl)thio)methyl)-3,4-dihydroquinazolin-7-yl)oxy)methyl)piperidin-1-yl)ethyl)piperidin-4-yl)-3-methyl-2-oxo-2,3-dihydro-1H-benzo[d]imidazol-1-yl)piperidine-2,6-dione] | < 100 nM |  |
| O=C1CCC(Nc2ccc(OCC3CC(N4CCC(COc5cc(F)c6c(=O)[nH]c(CSC7CCOCC7)nc6c5)CC4)C3)cc2)C(=O)N1 (stereo not drawn) [Example 46, 3-((4-((3-(4-(((5-fluoro-4-oxo-2-(((tetrahydro-2H-pyran-4-yl)thio)methyl)-3,4-dihydroquinazolin-7-yl)oxy)methyl)piperidin-1-yl)cyclobutyl)methoxy)phenyl)amino)piperidine-2,6-dione] | < 100 nM |  |
| Cn1nc(N2CCC(=O)NC2=O)c2ccc(C3CCN(CCN4CCC(COc5cc(F)c6c(=O)[nH]c(CSC7CCOCC7)nc6c5)CC4)CC3)cc21 [Example 74, 1-(6-(1-(2-(4-(((5-fluoro-4-oxo-2-(((tetrahydro-2H-pyran-4-yl)thio)methyl)-3,4-dihydroquinazolin-7-yl)oxy)methyl)piperidin-1-yl)ethyl)piperidin-4-yl)-1-methyl-1H-indazol-3-yl)dihydropyrimidine-2,4(1H,3H)-dione] | < 100 nM |  |
| COc1cc(N2CCC(N3CC(N4CCC(COc5cc(F)c6c(=O)[nH]c(CSC7CCOCC7)nc6c5)CC4)C3)CC2)c(F)cc1NC1CCC(=O)NC1=O (stereo not drawn) [Example 139] |  | < 30 nM |
| O=C1CCC(Nc2ccc(N3CCC(C(=O)N4CCC(COc5cc(F)c6c(=O)[nH]c(CSC7CCOCC7)nc6c5)CC4)CC3)c(F)c2)C(=O)N1 (stereo not drawn) [Example 153, 3-((3-fluoro-4-(4-(4-(((5-fluoro-4-oxo-2-(((tetrahydro-2H-pyran-4-yl)thio)methyl)-3,4-dihydroquinazolin-7-yl)oxy)methyl)piperidine-1-carbonyl)piperidin-1-yl)phenyl)amino)piperidine-2,6-dione] |  | < 30 nM |
| O=C1CCC(Nc2ccc(N3CCC(N4CC(N5CCC(COc6cc(F)c7c(=O)[nH]c(CSC8CCOCC8)nc7c6)CC5)C4)CC3)c(Cl)c2)C(=O)N1 (stereo not drawn) [Example 142] |  | < 30 nM |
| O=C1CCC(Nc2ccc(N3CCC(N4CCC(COc5cc(F)c6c(=O)[nH]c(CCC7CCOCC7)nc6c5)CC4)CC3)cc2)C(=O)N1 (stereo not drawn) [Example 114] |  | < 30 nM |
| O=C1CCC(Nc2ccc(N3CC4(CC(CN5CCC(COc6cc(F)c7c(=O)[nH]c(CSC8CCOCC8)nc7c6)CC5)C4)C3)c(F)c2)C(=O)N1 (stereo not drawn) [Example 227, 3-((3-fluoro-4-(6-((4-(((5-fluoro-4-oxo-2-(((tetrahydro-2H-pyran-4-yl)thio)methyl)-3,4-dihydroquinazolin-7-yl)oxy)methyl)piperidin-1-yl)methyl)-2-azaspiro[3.3]heptan-2-yl)phenyl)amino)piperidine-2,6-dione formate] |  | < 30 nM |
| O=C1CCN(c2ccc(C3CCN(CCN4CCC(COc5cc(F)c6c(=O)[nH]c(COC7CCOCC7)nc6c5)CC4)CC3)c(F)c2)C(=O)N1 [Example 204, 1-(3-fluoro-4-(1-(2-(4-(((5-fluoro-4-oxo-2-(((tetrahydro-2H-pyran-4-yl)oxy)methyl)-3,4-dihydroquinazolin-7-yl)oxy)methyl)piperidin-1-yl)ethyl)piperidin-4-yl)phenyl)dihydropyrimidine-2,4(1H,3H)-dione] |  | < 30 nM |
| O=C1CCC(Nc2ccc(N3CCN(CCN4CCC(COc5cc(F)c6c(=O)[nH]c(CCC7CCOCC7)nc6c5)CC4)CC3)cc2F)C(=O)N1 (stereo not drawn) [Example 216, 3-((2-fluoro-4-(4-(2-(4-(((5-fluoro-4-oxo-2-(2-(tetrahydro-2H-pyran-4-yl)ethyl)-3,4-dihydroquinazolin-7-yl)oxy)methyl)piperidin-1-yl)ethyl)piperazin-1-yl)phenyl)amino)piperidine-2,6-dione] |  | < 30 nM |
| O=C1CCC(Nc2ccc(N3CCC(O)(CC(=O)N4CCC(COc5cc(F)c6c(=O)[nH]c(CSC7CCOCC7)nc6c5)CC4)CC3)cc2F)C(=O)N1 (stereo not drawn) [Example 170, 3-((2-fluoro-4-(4-(2-(4-(((5-fluoro-4-oxo-2-(((tetrahydro-2H-pyran-4-yl)thio)methyl)-3,4-dihydroquinazolin-7-yl)oxy)methyl)piperidin-1-yl)-2-oxoethyl)-4-hydroxypiperidin-1-yl)phenyl)amino)piperidine-2,6-dione] |  | < 30 nM |

Source: patent US20240101540A1, “TARGETED PROTEIN DEGRADATION OF PARP14 FOR USE IN THERAPY” (Ribon Therapeutics, Inc., priority 2022, published 2024)
